Reference: ChEMBL document CHEMBL3627608, “Crystal structures of human RIP2 kinase catalytic domain complexed with ATP-competitive inhibitors: Foundations for understanding inhibitor selectivity” (Bioorg Med Chem, 2015)

How the values were obtained:
[1] = target: Tyrosine-protein kinase Fer (Homo sapiens) (UniProt P16591); assay: Inhibition of FER (unknown origin) at 10 uM after 120 mins P33 radiolabeled kinase activity assay
[2] = target: Serine/threonine-protein kinase PAK 2 (Homo sapiens) (UniProt Q13177); assay: Inhibition of PAK2 (unknown origin) at 10 uM after 120 mins P33 radiolabeled kinase activity assay
[3] = target: Tyrosine-protein kinase CSK (Homo sapiens) (UniProt P41240); assay: Inhibition of CSK (unknown origin) at 10 uM after 120 mins P33 radiolabeled kinase activity assay
[4] = target: Tyrosine-protein kinase receptor UFO (Homo sapiens) (UniProt P30530); assay: Inhibition of AXL (unknown origin) at 10 uM after 120 mins P33 radiolabeled kinase activity assay
[5] = target: Casein kinase I isoform epsilon (Homo sapiens) (UniProt P49674); assay: Inhibition of CK1epsilon (unknown origin) at 10 uM after 120 mins P33 radiolabeled kinase activity assay
[6] = target: Ribosomal protein S6 kinase alpha-6 (Homo sapiens) (UniProt Q9UK32); assay: Inhibition of RSK4 (unknown origin) at 10 uM after 120 mins P33 radiolabeled kinase activity assay
[7] = target: T1, Beta-adrenergic receptor kinase 1 (Homo sapiens) (UniProt P25098); assay: Inhibition of GRK2 (unknown origin) at 10 uM after 120 mins P33 radiolabeled kinase activity assay
T1 sequence (whole entry): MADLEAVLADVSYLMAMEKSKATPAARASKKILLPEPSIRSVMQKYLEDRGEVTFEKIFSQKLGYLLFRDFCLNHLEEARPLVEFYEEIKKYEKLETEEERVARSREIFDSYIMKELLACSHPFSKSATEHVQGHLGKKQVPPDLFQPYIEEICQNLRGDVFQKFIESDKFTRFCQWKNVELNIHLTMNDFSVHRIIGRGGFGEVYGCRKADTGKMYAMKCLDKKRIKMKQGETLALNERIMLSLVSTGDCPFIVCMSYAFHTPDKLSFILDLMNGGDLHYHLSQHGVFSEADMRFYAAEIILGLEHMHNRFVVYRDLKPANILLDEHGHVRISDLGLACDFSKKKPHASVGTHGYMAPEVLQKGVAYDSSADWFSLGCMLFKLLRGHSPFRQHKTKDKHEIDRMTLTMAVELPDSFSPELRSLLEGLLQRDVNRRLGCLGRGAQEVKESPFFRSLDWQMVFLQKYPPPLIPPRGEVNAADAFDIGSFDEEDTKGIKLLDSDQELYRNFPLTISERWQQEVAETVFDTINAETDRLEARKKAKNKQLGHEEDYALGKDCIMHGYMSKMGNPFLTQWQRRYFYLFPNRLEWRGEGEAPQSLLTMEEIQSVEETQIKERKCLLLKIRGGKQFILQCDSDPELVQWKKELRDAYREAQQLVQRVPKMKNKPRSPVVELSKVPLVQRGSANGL

[8] = target: T2, Serine/threonine-protein kinase Chk1 (Homo sapiens) (UniProt O14757); assay: Inhibition of CHK1 (unknown origin) at 10 uM after 120 mins P33 radiolabeled kinase activity assay
T2 sequence (whole entry): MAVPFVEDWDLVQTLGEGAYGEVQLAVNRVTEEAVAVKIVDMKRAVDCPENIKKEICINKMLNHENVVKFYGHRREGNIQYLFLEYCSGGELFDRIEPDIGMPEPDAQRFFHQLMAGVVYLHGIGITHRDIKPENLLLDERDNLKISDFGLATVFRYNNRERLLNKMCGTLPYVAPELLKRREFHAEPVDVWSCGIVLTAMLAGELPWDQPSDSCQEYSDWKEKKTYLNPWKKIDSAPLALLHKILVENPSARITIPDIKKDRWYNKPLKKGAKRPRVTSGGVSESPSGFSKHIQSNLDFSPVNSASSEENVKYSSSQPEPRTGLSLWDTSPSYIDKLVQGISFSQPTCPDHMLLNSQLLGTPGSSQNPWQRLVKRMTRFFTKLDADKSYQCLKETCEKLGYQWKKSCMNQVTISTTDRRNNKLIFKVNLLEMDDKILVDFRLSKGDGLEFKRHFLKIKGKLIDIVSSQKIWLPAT

[9] = target: Phosphorylase b kinase gamma catalytic chain, skeletal muscle/heart isoform (Homo sapiens) (UniProt Q16816); assay: Inhibition of PHKgamma1 (unknown origin) at 10 uM after 120 mins P33 radiolabeled kinase activity assay
[10] = target: T3, Serine/threonine-protein kinase ULK1 (Homo sapiens) (UniProt O75385); assay: Inhibition of ULK1 (unknown origin) at 10 uM after 120 mins P33 radiolabeled kinase activity assay
T3 sequence (whole entry): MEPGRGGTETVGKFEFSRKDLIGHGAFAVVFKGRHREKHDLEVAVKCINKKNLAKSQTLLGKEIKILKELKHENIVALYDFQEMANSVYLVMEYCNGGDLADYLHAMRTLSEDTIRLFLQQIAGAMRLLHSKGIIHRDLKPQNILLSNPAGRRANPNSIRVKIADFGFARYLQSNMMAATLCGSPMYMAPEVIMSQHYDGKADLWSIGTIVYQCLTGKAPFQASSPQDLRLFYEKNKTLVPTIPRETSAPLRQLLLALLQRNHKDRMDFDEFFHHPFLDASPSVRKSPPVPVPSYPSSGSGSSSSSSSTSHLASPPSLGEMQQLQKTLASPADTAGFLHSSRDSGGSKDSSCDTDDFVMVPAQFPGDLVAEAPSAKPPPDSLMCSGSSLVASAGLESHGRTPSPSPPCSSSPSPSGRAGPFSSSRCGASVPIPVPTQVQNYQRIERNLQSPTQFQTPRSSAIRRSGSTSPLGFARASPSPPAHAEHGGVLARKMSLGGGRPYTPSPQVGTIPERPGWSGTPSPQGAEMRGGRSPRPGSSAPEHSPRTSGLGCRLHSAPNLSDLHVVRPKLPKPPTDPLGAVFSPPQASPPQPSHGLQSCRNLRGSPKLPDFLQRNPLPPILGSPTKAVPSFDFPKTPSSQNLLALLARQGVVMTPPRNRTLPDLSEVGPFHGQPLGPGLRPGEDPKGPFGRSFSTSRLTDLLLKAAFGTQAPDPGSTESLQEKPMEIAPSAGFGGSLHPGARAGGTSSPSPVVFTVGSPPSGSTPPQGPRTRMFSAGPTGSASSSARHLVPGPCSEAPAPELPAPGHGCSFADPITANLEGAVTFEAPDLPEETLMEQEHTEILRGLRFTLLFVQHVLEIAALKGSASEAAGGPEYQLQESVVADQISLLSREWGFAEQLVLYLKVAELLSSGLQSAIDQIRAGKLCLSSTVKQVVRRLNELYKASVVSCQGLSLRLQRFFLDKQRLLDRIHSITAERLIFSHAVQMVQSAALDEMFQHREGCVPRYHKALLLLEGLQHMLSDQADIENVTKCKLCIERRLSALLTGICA

[11] = target: Mitogen-activated protein kinase 9 (Homo sapiens) (UniProt P45984); assay: Inhibition of JNK2 (unknown origin) at 10 uM after 120 mins P33 radiolabeled kinase activity assay
[12] = target: Mitogen-activated protein kinase kinase kinase 11 (Homo sapiens) (UniProt Q16584); assay: Inhibition of MLK3 (unknown origin) at 10 uM after 120 mins P33 radiolabeled kinase activity assay
Chain of Mitogen-activated protein kinase kinase kinase 11 (Homo sapiens) (Q16584 whole entry, looked up): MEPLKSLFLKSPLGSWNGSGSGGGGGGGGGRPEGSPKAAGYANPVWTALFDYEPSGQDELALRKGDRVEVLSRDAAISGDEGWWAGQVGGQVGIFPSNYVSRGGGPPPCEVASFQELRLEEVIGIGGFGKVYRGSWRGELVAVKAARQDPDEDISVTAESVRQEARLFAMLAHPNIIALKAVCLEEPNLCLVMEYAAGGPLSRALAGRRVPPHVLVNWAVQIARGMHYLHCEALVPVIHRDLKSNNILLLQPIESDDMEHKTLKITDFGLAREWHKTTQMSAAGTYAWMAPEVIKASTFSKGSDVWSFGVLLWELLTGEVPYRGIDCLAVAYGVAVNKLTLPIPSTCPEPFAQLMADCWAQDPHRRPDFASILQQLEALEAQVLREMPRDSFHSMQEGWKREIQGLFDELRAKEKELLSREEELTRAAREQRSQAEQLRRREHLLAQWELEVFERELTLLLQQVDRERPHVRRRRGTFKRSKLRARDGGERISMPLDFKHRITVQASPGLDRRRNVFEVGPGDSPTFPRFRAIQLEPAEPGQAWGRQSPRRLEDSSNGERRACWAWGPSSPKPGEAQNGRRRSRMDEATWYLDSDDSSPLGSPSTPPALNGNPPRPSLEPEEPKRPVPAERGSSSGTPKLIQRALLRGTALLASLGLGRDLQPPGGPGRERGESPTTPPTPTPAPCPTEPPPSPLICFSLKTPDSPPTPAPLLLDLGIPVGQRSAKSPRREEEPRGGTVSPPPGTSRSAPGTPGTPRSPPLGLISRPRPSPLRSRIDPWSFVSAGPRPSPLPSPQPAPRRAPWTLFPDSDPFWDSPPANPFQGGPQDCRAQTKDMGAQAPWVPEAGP

Chain of Ribosomal protein S6 kinase alpha-6 (Homo sapiens) (Q9UK32 whole entry): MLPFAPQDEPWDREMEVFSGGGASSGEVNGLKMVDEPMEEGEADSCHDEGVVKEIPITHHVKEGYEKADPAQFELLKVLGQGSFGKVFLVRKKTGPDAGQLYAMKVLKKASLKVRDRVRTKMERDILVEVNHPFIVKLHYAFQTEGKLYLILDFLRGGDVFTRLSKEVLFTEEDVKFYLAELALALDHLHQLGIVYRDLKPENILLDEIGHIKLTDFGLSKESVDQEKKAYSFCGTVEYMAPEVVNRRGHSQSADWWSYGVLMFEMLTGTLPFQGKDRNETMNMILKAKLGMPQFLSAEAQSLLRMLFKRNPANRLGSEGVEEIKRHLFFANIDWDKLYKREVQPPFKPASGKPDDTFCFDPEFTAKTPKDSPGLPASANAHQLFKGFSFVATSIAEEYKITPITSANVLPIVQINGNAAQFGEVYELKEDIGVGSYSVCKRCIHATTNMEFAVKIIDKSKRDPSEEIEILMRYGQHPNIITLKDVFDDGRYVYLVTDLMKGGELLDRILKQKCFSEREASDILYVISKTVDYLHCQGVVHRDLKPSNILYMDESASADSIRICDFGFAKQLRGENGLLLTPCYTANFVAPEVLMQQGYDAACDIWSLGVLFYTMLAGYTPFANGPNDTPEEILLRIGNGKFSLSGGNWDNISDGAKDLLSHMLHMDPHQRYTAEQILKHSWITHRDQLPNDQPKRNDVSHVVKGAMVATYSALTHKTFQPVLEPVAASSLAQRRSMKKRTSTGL
Chain of Tyrosine-protein kinase receptor UFO (Homo sapiens) (P30530 whole entry, canonical isoform): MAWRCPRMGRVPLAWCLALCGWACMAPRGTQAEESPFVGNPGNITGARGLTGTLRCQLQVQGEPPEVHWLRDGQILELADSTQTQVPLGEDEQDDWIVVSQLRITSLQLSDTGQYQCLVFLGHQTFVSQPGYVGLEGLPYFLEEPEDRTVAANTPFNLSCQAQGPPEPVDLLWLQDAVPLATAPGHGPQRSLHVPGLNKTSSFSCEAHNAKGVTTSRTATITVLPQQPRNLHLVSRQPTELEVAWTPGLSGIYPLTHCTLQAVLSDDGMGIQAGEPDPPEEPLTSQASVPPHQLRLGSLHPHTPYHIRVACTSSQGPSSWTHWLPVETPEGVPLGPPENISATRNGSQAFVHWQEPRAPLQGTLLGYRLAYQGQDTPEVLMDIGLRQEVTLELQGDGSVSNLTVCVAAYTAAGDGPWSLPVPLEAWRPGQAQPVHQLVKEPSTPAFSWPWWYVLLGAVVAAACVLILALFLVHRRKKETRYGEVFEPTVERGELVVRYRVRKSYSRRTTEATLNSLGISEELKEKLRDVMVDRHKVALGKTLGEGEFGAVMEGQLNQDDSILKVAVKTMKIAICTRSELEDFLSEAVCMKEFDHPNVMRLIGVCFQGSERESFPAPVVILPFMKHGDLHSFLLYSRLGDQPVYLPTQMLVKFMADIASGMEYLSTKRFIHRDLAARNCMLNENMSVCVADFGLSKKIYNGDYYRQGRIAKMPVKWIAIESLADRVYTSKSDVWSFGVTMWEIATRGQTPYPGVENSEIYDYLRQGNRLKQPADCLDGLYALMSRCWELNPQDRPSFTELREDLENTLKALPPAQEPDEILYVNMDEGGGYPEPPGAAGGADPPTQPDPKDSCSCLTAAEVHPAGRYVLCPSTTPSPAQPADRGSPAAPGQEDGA
Chain of Serine/threonine-protein kinase PAK 2 (Homo sapiens) (Q13177 whole entry): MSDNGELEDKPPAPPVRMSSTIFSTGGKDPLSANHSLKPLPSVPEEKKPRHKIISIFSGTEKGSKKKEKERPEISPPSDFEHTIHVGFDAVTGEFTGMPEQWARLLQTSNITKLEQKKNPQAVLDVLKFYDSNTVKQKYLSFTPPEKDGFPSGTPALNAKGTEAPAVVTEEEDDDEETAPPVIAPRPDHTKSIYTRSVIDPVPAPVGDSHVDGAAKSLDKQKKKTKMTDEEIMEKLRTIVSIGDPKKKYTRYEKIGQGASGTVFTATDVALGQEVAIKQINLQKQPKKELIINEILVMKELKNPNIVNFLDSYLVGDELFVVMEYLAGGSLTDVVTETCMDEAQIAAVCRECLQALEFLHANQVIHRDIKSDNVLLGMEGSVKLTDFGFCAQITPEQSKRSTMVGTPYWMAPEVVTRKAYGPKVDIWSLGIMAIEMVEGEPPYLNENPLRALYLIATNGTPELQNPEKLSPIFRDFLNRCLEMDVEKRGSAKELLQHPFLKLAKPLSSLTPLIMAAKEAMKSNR
Chain of Phosphorylase b kinase gamma catalytic chain, skeletal muscle/heart isoform (Homo sapiens) (Q16816 whole entry, looked up, canonical isoform): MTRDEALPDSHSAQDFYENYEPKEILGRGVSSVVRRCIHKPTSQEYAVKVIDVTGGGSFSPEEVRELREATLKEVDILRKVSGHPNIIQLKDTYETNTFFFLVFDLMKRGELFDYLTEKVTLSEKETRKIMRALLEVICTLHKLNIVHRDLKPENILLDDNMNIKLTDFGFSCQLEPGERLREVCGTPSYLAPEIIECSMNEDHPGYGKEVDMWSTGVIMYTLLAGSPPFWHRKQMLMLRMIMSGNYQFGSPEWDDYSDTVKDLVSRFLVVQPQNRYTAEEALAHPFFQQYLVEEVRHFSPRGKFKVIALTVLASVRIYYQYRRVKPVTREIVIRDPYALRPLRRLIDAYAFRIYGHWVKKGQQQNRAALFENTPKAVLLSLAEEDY
Chain of Tyrosine-protein kinase Fer (Homo sapiens) (P16591 whole entry, looked up): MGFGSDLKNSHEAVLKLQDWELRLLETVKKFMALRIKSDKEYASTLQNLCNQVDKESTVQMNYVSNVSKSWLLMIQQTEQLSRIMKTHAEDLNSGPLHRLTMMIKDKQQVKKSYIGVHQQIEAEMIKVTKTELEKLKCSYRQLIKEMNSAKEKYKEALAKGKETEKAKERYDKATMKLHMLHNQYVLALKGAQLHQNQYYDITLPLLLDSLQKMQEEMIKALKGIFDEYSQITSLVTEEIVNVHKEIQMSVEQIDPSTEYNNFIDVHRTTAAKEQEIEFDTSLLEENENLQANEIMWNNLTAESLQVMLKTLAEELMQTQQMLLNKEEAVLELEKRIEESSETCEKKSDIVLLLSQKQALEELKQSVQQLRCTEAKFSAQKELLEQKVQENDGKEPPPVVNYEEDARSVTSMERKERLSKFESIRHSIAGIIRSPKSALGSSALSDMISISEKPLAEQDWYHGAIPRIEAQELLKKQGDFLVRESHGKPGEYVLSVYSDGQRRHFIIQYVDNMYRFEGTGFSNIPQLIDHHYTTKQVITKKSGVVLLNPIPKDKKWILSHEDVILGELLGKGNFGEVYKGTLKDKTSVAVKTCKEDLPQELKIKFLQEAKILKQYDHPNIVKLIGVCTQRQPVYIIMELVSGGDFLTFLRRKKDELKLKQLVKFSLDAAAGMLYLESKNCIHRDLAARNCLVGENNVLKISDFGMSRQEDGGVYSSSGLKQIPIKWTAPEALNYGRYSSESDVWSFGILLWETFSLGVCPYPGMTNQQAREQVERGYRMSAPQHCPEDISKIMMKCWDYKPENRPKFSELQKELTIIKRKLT
Chain of Casein kinase I isoform epsilon (Homo sapiens) (P49674 whole entry, looked up, canonical isoform): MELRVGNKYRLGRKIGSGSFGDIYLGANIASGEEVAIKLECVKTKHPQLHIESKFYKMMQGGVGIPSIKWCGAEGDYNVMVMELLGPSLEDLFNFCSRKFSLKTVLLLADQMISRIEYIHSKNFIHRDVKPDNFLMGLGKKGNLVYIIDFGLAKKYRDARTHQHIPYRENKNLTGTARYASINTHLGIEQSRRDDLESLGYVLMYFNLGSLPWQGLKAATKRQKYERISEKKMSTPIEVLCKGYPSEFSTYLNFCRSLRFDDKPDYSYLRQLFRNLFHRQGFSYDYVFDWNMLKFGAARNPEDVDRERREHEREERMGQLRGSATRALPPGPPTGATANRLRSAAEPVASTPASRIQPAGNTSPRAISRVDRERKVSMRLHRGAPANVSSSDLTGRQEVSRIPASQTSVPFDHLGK

| inhibition [1] | inhibition [2] | inhibition [3] | inhibition [4] | inhibition [5] | inhibition [6] | inhibition [7] | inhibition [8] | inhibition [9] | inhibition [10] | inhibition [11] | inhibition [12] | Structure (SMILES) |
| --- | --- | --- | --- | --- | --- | --- | --- | --- | --- | --- | --- | --- |
| 65.2% | 15.8% | 100% | 82.1% | 36.8% | 66.9% | 4.42% | 10.9% | 8.44% | 52.4% | 13.5% | 92.7% | CS(=O)(=O)c1cccc(Nc2nccc(-c3sc(N4CCOCC4)nc3-c3cccc(NS(=O)(=O)c4c(F)cccc4F)c3)n2)c1 |
| 0.68% | 6.88% | 15.6% | 7.68% | 44.4% | 1.08% | 2.91% | 15.3% | 10.5% | 3.62% | 9.13% | 6.84% | COCCNC(=O)c1ccc2c(c1)nc(-c1cnc(-c3ccc(Cl)cc3)[nH]1)n2CCOC |
| 19.9% | 9.28% | 78.4% | 86.6% | 5.92% | 4.26% | 2.3% | -0.09% | 55.9% | 5.71% | 79.8% | 60.1% | CC(C)(C)c1cc(NC(=O)Nc2ccc(Oc3ccncc3)cc2)no1 |
